Source: patent US10363251B2, “(+)-morphinans as antagonists of toll-like receptor 9 and therapeutic uses thereof” (Mallinckrodt LLC, priority 2009, dated 2019)
“Also recorded” adds a separate entry of the source. Where two headings read alike, the source gives them in different places.

Key:
TLR9 = target: T1, TLR9 (Homo sapiens, UniProt Q9NR96); test: TLR9 screening of (+)-morphinan library, SEAP reporter in HEK293 cells expressing TLR9; format: cell-based; conditions: activator ODN2006; for OD 650 nm (mean ± sd): control (no activator) 0.14, activator 1.42 OD
T1 construct: expressed in transfected cells; host or cells: HEK293
T1 sequence (Q9NR96 26-1032): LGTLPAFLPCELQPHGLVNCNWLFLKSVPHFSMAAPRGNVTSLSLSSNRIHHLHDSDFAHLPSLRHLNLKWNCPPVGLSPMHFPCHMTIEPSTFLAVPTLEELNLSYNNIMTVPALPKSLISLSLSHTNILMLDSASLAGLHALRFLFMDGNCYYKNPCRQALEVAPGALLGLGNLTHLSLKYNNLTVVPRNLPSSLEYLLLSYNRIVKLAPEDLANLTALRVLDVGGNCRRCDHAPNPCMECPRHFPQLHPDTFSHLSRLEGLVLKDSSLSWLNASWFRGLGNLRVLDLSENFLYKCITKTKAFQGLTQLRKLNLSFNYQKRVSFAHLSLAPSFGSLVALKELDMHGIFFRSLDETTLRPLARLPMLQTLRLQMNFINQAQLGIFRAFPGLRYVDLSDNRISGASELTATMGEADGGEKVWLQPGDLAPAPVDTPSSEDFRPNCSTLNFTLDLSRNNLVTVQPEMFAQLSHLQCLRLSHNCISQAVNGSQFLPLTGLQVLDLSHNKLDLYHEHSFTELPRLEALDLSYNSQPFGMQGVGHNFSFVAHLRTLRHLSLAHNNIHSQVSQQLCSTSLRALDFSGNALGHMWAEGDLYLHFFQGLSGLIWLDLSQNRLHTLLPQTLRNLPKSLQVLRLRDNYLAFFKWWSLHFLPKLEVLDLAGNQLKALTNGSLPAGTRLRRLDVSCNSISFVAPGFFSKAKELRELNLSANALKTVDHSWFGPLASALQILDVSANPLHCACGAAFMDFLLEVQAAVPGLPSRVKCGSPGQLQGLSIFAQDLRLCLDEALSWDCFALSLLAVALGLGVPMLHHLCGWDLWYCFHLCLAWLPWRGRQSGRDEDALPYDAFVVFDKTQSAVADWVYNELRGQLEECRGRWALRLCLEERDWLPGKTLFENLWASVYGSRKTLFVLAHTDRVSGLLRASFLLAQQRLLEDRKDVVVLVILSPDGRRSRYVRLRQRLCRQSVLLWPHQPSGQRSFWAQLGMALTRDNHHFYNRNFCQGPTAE
Summary of the method: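 HEK293 cells expressing TLR9 with an NF-κB-inducible SEAP reporter were preincubated with compound at 10 μM and 100 nM for 30 min at 37 °C, then stimulated with ODN2006. SEAP was read as OD 650 nm after 16-20 h, in triplicate.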

[1] = system: chronic constriction injury (CCI) neuropathic pain model; test: Reversal of allodynia (von Frey) in CCI rats, 4 days of dosing, Example 4; format: in vivo, rat; conditions: for Animals sleepier/sedated on at least one post dosing occasion / Local observations (swelling, irritation): i.p.; for Reversal of allodynia (von Frey): i.p. once a day for 4 days from day 14, tested 3 hrs after dosing, ultra low to high dose; for Reversal of allodynia (von Frey) / Area under the curve (AUC) analysis of allodynia: vs saline; for Area under the curve (AUC) analysis of allodynia: i.p. once a day for 4 days
Description: Allodynia was induced in a group of (male, Sprague-Dawley) rats essentially as described above in Example 3. Prior to surgery, animals were tested to establish their baseline von Frey scores. Any animal with a Log absolute von Frey score lower than 4.65 on either leg was excluded from the study. CCI surgery was performed on the left sciatic nerve as detailed above. On days 4 and 14 post-surgery, the animals were tested using the von Frey test of mechanical allodynia to ensure that allodynia was established.
Beginning at about day 14 post-surgery, the animals were dosed once a day for 4 days. Compounds II-25, II-93, II-62, and III-2 were tested. All drugs were administered intraperitoneally (i.p.). Allodynia was tested prior to and again 3 hrs after each dosing. Drug administration and testing was done blindly. After the 4th day of dosing, the animals were sacrificed, cardiac perfusion was performed, and spinal cords were removed and stored for further analysis.
All data were analyzed using 2-way ANOVA's with Bonferroni's post hoc test compared to saline unless otherwise stated. Area under curve (AUC) was calculated using Graphpad Prism and comparisons were made using 1-way ANOVA with Dunnet's post hoc test.

[2] = system: APAP-induced liver toxicity; test: Acetaminophen (APAP)-induced hepatotoxicity model; format: in vivo, mouse; conditions: APAP 500 mg/Kg ip, 12 hours post-APAP; for Protection from APAP-induced toxicity: test doses and timing per Table 6; for Liver histology scores (necrosis and hemorrhage): vs APAP alone
Description: For this, APAP-induced liver toxicity was induced in male C57BL/6 mice aged between 8-10 weeks by a single intraperitoneal (ip) injection of APAP in PBS at a dose of 500 mg/Kg (Imaeda et al. (2009) J. Clin. Invest. 119(2):305-314). The ability of (+)-morphinans to reduce liver toxicity was tested in the following groups:
The (+)-morphinan (or PBS) was either administered as a single subcutaneous (sc) or ip injection concurrent with the APAP injection or one hour prior to the APAP injection.
The mice were sacrificed 12 hours post-APAP treatment. Liver samples were stained with H&E and analyzed for signs of necrosis and hemorrhage. Histology scores were assigned using the standard rating scale. The levels of serum alanine transaminase (ALT) were also measured in each animal using a standard assay.

[3] = HEK293, read-out: % Inhibition (mean), 100 nM
[4] = HEK293, read-out: % Inhibition (mean), 10 μM
[5] = HEK293, 100 nM, read-out: % Inhibition (mean)
[6] = HEK293, 10 μM, read-out: % Inhibition (mean)

SMILES: CN(C(=O)/C=C/c1ccoc1)[C@H]1CC[C@]2(O)[C@@H]3Cc4ccc(O)c5c4[C@]2(CCN3CC2CC2)[C@@H]1O5 [II-62]
- OD 650 nm (mean ± sd) (TLR9; 100 nM): 1.34 ± 0.05 OD
- OD 650 nm (mean ± sd) (TLR9; 10 μM): 0.18 ± 0.01 OD
- inhibition at 0.1 µM (TLR9; [3]): 6%
- inhibition at 10 µM (TLR9; [4]): 87%
- Time course analysis of allodynia, ipsilateral paw ([1]; Day 4 of dosing): slight reversal of allodynia
- Animals sleepier/sedated on at least one post dosing occasion ([1]; high dose): two
- Local observations (swelling, irritation) ([1]; high dose): appeared to irritate the rats when it was injected; also recorded: swelling around the site of injection
- Reversal of allodynia (von Frey) [1]: did not significantly reverse allodynia at any dose
- Area under the curve (AUC) analysis of allodynia [1]: no overall effect of any dose
- Animals sleepier/sedated on at least one post dosing occasion ([1]; low dose): one
- Animals sleepier/sedated on at least one post dosing occasion ([1]; medium dose): one

SMILES: COc1ccc2c3c1O[C@@H]1[C@H](O)CC[C@@H]4[C@H](C2)N(CC2CC2)CC[C@]341 [II-25]
- OD 650 nm (mean ± sd) (TLR9; 100 nM): 1.33 ± 0.07 OD
- OD 650 nm (mean ± sd) (TLR9; 10 μM): 0.21 ± 0.06 OD
- inhibition at 0.1 µM (TLR9; [3]): 6%
- inhibition at 10 µM (TLR9; [4]): 85%
- Animals sleepier/sedated on at least one post dosing occasion ([1]; high dose): 5-6
- Reversal of allodynia (von Frey) [1]: significant overall effect on the reversal of allodynia bilaterally; also recorded: effective at reversing mechanical allodynia
- Area under the curve (AUC) analysis of allodynia [1]: significantly reversed allodynia

SMILES: C=CCN1CCc2cc(OC)ccc2[C@H]1Cc1ccc(OC)c(O)c1 [III-2]
- Protection from APAP-induced toxicity [2]: None of compounds II-24, II-93, or III-2 provided any protection
- Liver histology scores (necrosis and hemorrhage) [2]: about the same as those only exposed to APAP
- OD 650 nm (mean ± sd) (TLR9; 100 nM): 1.13 ± 0.02 OD
- OD 650 nm (mean ± sd) (TLR9; 10 μM): 0.42 ± 0.04 OD
- inhibition at 0.1 µM (TLR9; [5]): 21%
- inhibition at 10 µM (TLR9; [6]): 71%
- Reversal of allodynia (von Frey) [1]: no effect on allodynia at any dose
- Animals sleepier/sedated on at least one post dosing occasion ([1]; low dose): Two

SMILES: C=CCN1CC[C@@]23c4c5ccc(OC)c4OC2C(NCCC)CCC3C1C5 (some centres unmarked) [II-93]
- Protection from APAP-induced toxicity [2]: None of compounds II-24, II-93, or III-2 provided any protection
- Liver histology scores (necrosis and hemorrhage) [2]: about the same as those only exposed to APAP
- OD 650 nm (mean ± sd) (TLR9; 100 nM): 0.12 ± 0.00 OD
- OD 650 nm (mean ± sd) (TLR9; 10 μM): 0.11 ± 0.01 OD
- inhibition at 0.1 µM (TLR9; [3]): 91%
- inhibition at 10 µM (TLR9; [4]): 92%
- Animals sleepier/sedated on at least one post dosing occasion ([1]; high dose): 7
- Local observations (swelling, irritation) ([1]; high dose): swelling of the ipsilateral paw
- Reversal of allodynia (von Frey) [1]: significantly reversed allodynia in the ipsilateral paw after the high dose only; also recorded: effective at reversing mechanical allodynia
- Area under the curve (AUC) analysis of allodynia [1]: significant reversal of allodynia in the ipsilateral paw
- Animals sleepier/sedated on at least one post dosing occasion ([1]; low dose): one
- Animals sleepier/sedated on at least one post dosing occasion ([1]; medium dose): two

SMILES: CO[C@]12CCC(=O)[C@H]3Oc4c(O)ccc5c4[C@]31CCN(CC1CC1)[C@H]2C5 [II-79]
- OD 650 nm (mean ± sd) (TLR9; 100 nM): 1.07 ± 0.03 OD
- OD 650 nm (mean ± sd) (TLR9; 10 μM): 1.06 ± 0.11 OD
- inhibition at 0.1 µM (TLR9; [3]): 25%
- inhibition at 10 µM (TLR9; [4]): 25%

SMILES: COC1=CCC2[C@@H]3Cc4ccc(OC)c5c4[C@]2(CCN3C)[C@@H]1O5 (some centres unmarked) [II-96]
- OD 650 nm (mean ± sd) (TLR9; 100 nM): 1.15 ± 0.06 OD
- OD 650 nm (mean ± sd) (TLR9; 10 μM): 0.42 ± 0.02 OD
- inhibition at 0.1 µM (TLR9; [3]): 19%
- inhibition at 10 µM (TLR9; [4]): 71%

SMILES: C=C(C)c1cc(OC)c(O)c2c1CC1C3CCC(=O)C[C@@]23CCN1CC1CC1 (some centres unmarked) [Compound I-27]
- OD 650 nm (mean ± sd) (TLR9; 100 nM): 1.13 ± 0.04 OD
- OD 650 nm (mean ± sd) (TLR9; 10 μM): 0.10 ± 0.00 OD
- inhibition at 0.1 µM (TLR9; [3]): 20%
- inhibition at 10 µM (TLR9; [4]): 93%

SMILES: COc1ccc2c3c1OC1C(O)CC[C@@H]4[C@H](C2)N(C)CC[C@@]314 (some centres unmarked) [II-7]
- OD 650 nm (mean ± sd) (TLR9; 100 nM): 1.32 ± 0.08 OD
- OD 650 nm (mean ± sd) (TLR9; 10 μM): 0.13 ± 0.02 OD
- inhibition at 0.1 µM (TLR9; [3]): 7%
- inhibition at 10 µM (TLR9; [4]): 91%

SMILES: COc1ccc2c(c1)CCN(CC1CCC1)[C@@H]2Cc1ccc(OC)c(O)c1 [III-4]
- OD 650 nm (mean ± sd) (TLR9; 100 nM): 1.04 ± 0.04 OD
- OD 650 nm (mean ± sd) (TLR9; 10 μM): 0.11 ± 0.01 OD
- inhibition at 0.1 µM (TLR9; [5]): 27%
- inhibition at 10 µM (TLR9; [6]): 92%

SMILES: C=CCN1CC[C@@]23CC(=O)C(OC)C[C@@H]2[C@@H]1Cc1ccc(OC)c(O)c13 (some centres unmarked) [Compound I-16]
- OD 650 nm (mean ± sd) (TLR9; 100 nM): 1.50 ± 0.01 OD
- OD 650 nm (mean ± sd) (TLR9; 10 μM): 0.91 ± 0.04 OD
- inhibition at 0.1 µM (TLR9; [3]): -5%
- inhibition at 10 µM (TLR9; [4]): 36%

SMILES: COC1=CC=C2[C@@H]3Cc4ccc(OC)c5c4[C@]2(CCN3CC2CC2)[C@@H]1O5 [II-36]
- OD 650 nm (mean ± sd) (TLR9; 100 nM): 1.14 ± 0.02 OD
- OD 650 nm (mean ± sd) (TLR9; 10 μM): 0.14 ± 0.01 OD
- inhibition at 0.1 µM (TLR9; [3]): 20%
- inhibition at 10 µM (TLR9; [4]): 90%

SMILES: C=CCN1CC[C@@]23c4c5c(-c6ccoc6)cc(OC)c4O[C@@H]2C(=O)CCC3C1C5 (some centres unmarked) [II-2]
- OD 650 nm (mean ± sd) (TLR9; 100 nM): 1.23 ± 0.05 OD
- OD 650 nm (mean ± sd) (TLR9; 10 μM): 0.12 ± 0.01 OD
- inhibition at 0.1 µM (TLR9; [3]): 13%
- inhibition at 10 µM (TLR9; [4]): 92%

SMILES: COC(=O)/C=C/c1cc(OC)c2c3c1CC1C4CCC(=O)[C@@H](O2)[C@@]34CCN1CC1CC1 (some centres unmarked) [II-15]
- OD 650 nm (mean ± sd) (TLR9; 100 nM): 1.22 ± 0.06 OD
- OD 650 nm (mean ± sd) (TLR9; 10 μM): 0.23 ± 0.03 OD
- inhibition at 0.1 µM (TLR9; [3]): 14%
- inhibition at 10 µM (TLR9; [4]): 84%
